Reference: patent US6114326A, “Use of cabergoline in the treatment of restless legs syndrome” (priority 1999, dated 2000)
Entries after “also recorded” stand apart in the source; their conditions may differ.

Columns and labels:
[1] = tested on: restless legs syndrome patients; experiment: Physician's rating (CGI) in 12-week open label trial; assay type: in vivo
Method: (§1) Following a 2-week baseline period, all patients were treated with cabergoline in an open trial for 12 weeks. Apart from levodopa, patients had to stop taking any medication known to have positive or negative effect on RLS two weeks before baseline (i.e., other dopamine agonists, benzodiazepines, opioids or other psychotropic agents). Patients who were on levodopa therapy were allowed to either stop levodopa prior to study entry or to continue, taper or discontinue levodopa during the study. To prevent well known peripheral dopaminergic side-effects such as nausea, vomiting, vertigo and arterial hypotension domperidone (not available in the United States) was comedicated initially and also tapered if possible. […] Neurological case history, examination, electrocardiogramm, chest x-ray and polysomnography were performed to ensure that selection criteria were fulfilled. A two-night PSG (including one night of adaptation) was performed to evaluate the diagnosis and inclusion/exclusion criteria regardless if patients were on or off levodopa. After a 12-week treatment period patients were studied again for one night in the sleep laboratory. Subjective ratings were obtained at baseline, week 4, week 8 and at the endpoint after 12 weeks. In addition patients were monitored by phone calls to note any adverse events and to determine whether to increase the dosage of the study drug, to decrease levodopa and to decrease domperidone. The time schedule of phone calls was variable and the frequency mostly dependent on the presence of simultaneous levodopa therapy.
Physician's rating. The physician rated the severity of illness at baseline (normal to extremely ill), the global improvement (general condition very much worse to very much better) and the side effects by use of the Clinical Global Impressions (CGI). Safety. Safety of Cabergoline was assessed to the type and frequency of adverse event, clinically significant changes in laboratory data or ECG and premature discontinuation of study participation. Adverse events were classified as serious versus nonserious and characterized by intensity, relationship to drug treatment, frequency, course and therapeutic intervention.
Statistical analysis. Statistical evaluation was performed as intent-to-treat analysis using descriptive statistics.

[2] = tested on: restless legs syndrome patients; experiment: Safety / adverse events, tolerability, augmentation in 12-week open label trial; assay type: in vivo
Excerpt: as §1, with “Apart” for “Following a 2-week baseline period, all patients were treated with cabergoline in an open trial for 12 weeks. Apart”, “therapy. Dosing. […] Medication was taken 2 hours prior to bedtime. Initial therapy consisted of one 0.5 mg tablet. […] The increased dose could be decreased again if necessary. […] Subjects who were pretreated with levodopa were asked to decrease levodopa simultaneously if possible. Physician's rating. The physician rated the severity of illness at baseline (normal to extremely ill), the global improvement (general condition very much worse to very much better) and the side effects by use of the Clinical Global Impressions (CGI). Safety. Safety of Cabergoline was assessed to the type and frequency of adverse event, clinically significant changes in laboratory data or ECG and premature discontinuation of study participation. Adverse events were classified as serious versus nonserious and characterized by intensity, relationship to drug treatment, frequency, course and therapeutic intervention.” for “therapy.”

D2 family of receptors = conditions: cited from earlier work
[3] = tested on: restless legs syndrome patients; experiment: Safety / adverse events, tolerability, augmentation in 12-week open label trial; assay type: in vivo; conditions: 6 months or more after treatment, compared with L-Dopa
D1 family of receptors = conditions: cited from earlier work
[4] = tested on: D2 and D3 molecular receptors; conditions: cited from earlier work
[5] = Half-life and duration of action; assay type: in vivo; conditions: 'here we report'
[6] = cited to Ahlskog et al. 1996; cited from earlier work

duration of action (may last) [5]: ≤ 65 h
SMILES: C=CCN1C[C@H](C(=O)N(CCCN(C)C)C(=O)NCC)C[C@@H]2c3cccc4[nH]cc(c34)C[C@H]21 [Cabergoline, 1((6-allylergolin-8β-yl) -carbony.)-1-(3-(dimethylamino)propyl)-3-ethylurea]
global improvement (physician's rating, in words) ([1]; in vivo): significant global improvement | general condition minimally better (physician's rating), number of patients ([1]; of 9 patients): 1 | general condition much better (physician's rating), number of patients ([1]; of 9 patients): 3 | general condition very much better (physician's rating), number of patients ([1]; of 9 patients): 5 | peripheral or other dopaminergic side effects ([2]; 4 mg cabergoline monotherapy): did not see peripheral or other dopaminergic side effects | total adverse events probably related to study drug ([2]; 9 patients, 12 weeks): 8 | augmentation under cabergoline ([2]; 12-week treatment): lower incidence; also recorded: did not observe augmentation | duration and intensity of adverse events ([2]; all adverse events): temporary and considered to be mild to moderate | reversal of levodopa-evoked augmentation of RLS symptoms ([2]; all patients): reversible | discontinuation of levodopa during study ([2]; all patients initially on levodopa): discontinued levodopa treatment | tolerability (in words) ([2]; domperidone stopped in all patients): excellent tolerability; also recorded: good tolerability | changes in laboratory data or ECG ([2]; in vivo): No significant changes | serious side effects / serious adverse events ([2]; in vivo): no serious side effects; also recorded: no serious adverse events | withdrawal / discontinuation of patients ([2]; in vivo): no patient withdrew; also recorded: no patient discontinued | patients with adverse events probably related to study drug ([2]; of 9 patients): 5 patients | diarrhea ([2]; probably related side effects): 1 | dizziness ([2]; probably related side effects): 2 | headache ([2]; probably related side effects): 2 | vertigo ([2]; probably related side effects): 2 | nausea ([2]; probably related, led to temporary dose reduction): 1 patient | D2 family agonist activity (in words) (D2 family of receptors): full D2 family agonist | tolerance to treatment (in words) [3]: low tolerance; also recorded: lack of tolerance | D1 family activity (in words) (D1 family of receptors): partial D1 activity; also recorded: partial DI family activity | D2 versus D3 binding (in words) [4]: greater D2 over D3 binding | duration of action [6]: at least 24 hours
